According to PMC5538713, “RORγt and RORα signature genes in human Th17 cells” (PLoS ONE, 2017):
pIC50, pKd: −log10 of the molar value. Where two headings read alike, the source gives them in different places.

Legend:
RORα LBD = molecular target: T1, RORα LBD (Homo sapiens, UniProt P35398); assay: ThermoFluor binding assay, RORα LBD; conditions: for Kd: recombinant human LBD, read-out: ThermoFlour Binding Assay (Kd, nM) RORα
T1 construct: made in house; host or cells: E. coli BL21DE3 GOLD, pET24a
T1 sequence (P35398 304-556 isoform P35398-1): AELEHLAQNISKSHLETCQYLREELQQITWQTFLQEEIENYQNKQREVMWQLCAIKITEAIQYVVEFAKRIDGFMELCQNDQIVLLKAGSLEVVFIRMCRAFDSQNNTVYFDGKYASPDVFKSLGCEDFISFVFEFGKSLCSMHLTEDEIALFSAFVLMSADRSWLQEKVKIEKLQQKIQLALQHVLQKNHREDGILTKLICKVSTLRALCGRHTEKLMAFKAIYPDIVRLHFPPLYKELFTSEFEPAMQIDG
Method: (§1) Recombinant human RORγ, RORα and RORβ LBD proteins were prepared for ThermoFlour binding assay. The nucleotide sequences encoding the ligand binding domains (LBD) of human RORγ (Genbank accession no. NP005051, amino acid 237–497), RORα (Genbank accession no. NP599022, amino acid 304–556), and RORβ (Genbank accession no. NP008845, amino acid 201–452) were PCR-amplified and cloned into pET24a (Novagen) for expression in bacteria. All recombinant proteins contained an additional amino acid sequence of […] at the N-terminal of LBD. After transformation of the bacteria strain BL21DE3 GOLD (Agilent) with the plasmids, 10 to 20 L cultures were grown to 1 OD and recombinant protein expression was induced overnight at 16°C with 0.2mM isopropyl-beta-D-thiogalactopyranoside (IPTG) (Corning). […]. His-tagged proteins were collected with Ni-NTA resin (Qiagen) and purified with a HiTrap Q HP column (GE Life Sciences) eluted with a 40 CV gradient of 50-500mM NaCl.
(§2) The ThermoFluor® assay was established to measure the change in protein stability upon binding with compounds. 1-Anilinonaphthalene-8-Sulfonic Acid (1,8-ANS) (Invitrogen) was used as a fluorescent dye to label the test proteins. The assay was performed in polypropylene PCR microplates (TF-0384/k, Abgene) with a final assay of 3 μL reaction mixture per well overlaid with 1 μL silicone oil (Sigma-Aldrich). Assay plates were robotically loaded onto a thermostatically controlled PCR-type thermal block and then heated at a ramp-rate of 1°C/min. Fluorescence emission was initiated by continuous illumination with UV light (LC6, Hamamatsu) via fiber optic with a band-pass filter (380–400 nm) and detected with a CCD camera (Sensys, Roper Scientific) filtered to detect signal of 500 ± 25 nm. Reference wells contained recombinant LBD of RORγt, RORα or RORβ alone, and the assay conditions were as follows: 0.065 mg/mL RORγt LBD, 60 μM 1,8-ANS, 100 mM HEPES pH 7.0, 10 mM NaCl, 2.5 mM GSH, 0.002% Tween- 20; 0.1 mg/mL RORα, 70 μM 1,8-ANS, 25 mM HEPES pH 7.0, 50 mM NaCl, 0.001% Tween-20; 0.08 mg/mL RORβ, 60 μM 1,8-ANS, 50 mM HEPES pH 7.0, 100 mM NaCl, 0.001% Tween-20. All 3 assays were performed in the absence and in the presence of 100 μM co-activator peptide SRC1 ([…], England Peptide custom synthesis). The binding affinity of test compounds was estimated as described previously.

RORβ LBD = molecular target: T2, RORβ LBD (Homo sapiens, UniProt Q92753); assay: ThermoFluor binding assay, RORβ LBD; conditions: for Kd: recombinant human LBD, read-out: ThermoFlour Binding Assay (Kd, nM) RORβ
T2 construct: made in house; host or cells: E. coli BL21DE3 GOLD, pET24a
T2 sequence (Q92753 201-452 isoform Q92753-1): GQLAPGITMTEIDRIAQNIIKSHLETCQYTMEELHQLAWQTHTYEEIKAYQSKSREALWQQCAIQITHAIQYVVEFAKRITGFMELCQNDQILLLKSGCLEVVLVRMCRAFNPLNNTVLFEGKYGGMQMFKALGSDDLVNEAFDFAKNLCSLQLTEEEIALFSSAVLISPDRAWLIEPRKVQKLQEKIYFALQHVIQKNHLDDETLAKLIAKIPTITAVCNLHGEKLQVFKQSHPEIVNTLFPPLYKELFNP
Method: as §1, §2

[1] = tested on: human CD4 T cells, IL-17A production; assay: Th17 differentiation assay (IL-17A production); format: cell-based; conditions: 72 h; for IC50: Homo sapiens, CD4+ T, read-out: Th17 Differentiation (IL-17A production) (IC50, nM)
[2] = tested on: human CD4 T cells, IFNγ production; assay: Th1 differentiation assay (IFNγ production); format: cell-based; conditions: 72 h; for IC50: Homo sapiens, CD4+ T, read-out: Th1 Differentiation (IFNγ production) (IC50, nM)
Ca2+ Channel = assay: Cerep selectivity panel; format: binding
Method: (§3) Supplementary file pone.0181868.s003.docx: S3 Table Selectivity profile of RORγt inverse agonists A, B, C and D. Compounds were evaluated at 1 μM and 10 μM in a panel of assays against 50 receptors, ion channels and transporters (Profile service by Cerep Inc.). (DOCX) Click here for additional data file.
(§4) S3 Table. RORɣt inverse agonists A, B, C and D were evaluated at 1 µM and 10 µM in a panel of assays against 50 receptors, ion channels and transporters (Profile service by Cerep Inc.).

GABA = assay: Cerep selectivity panel; format: binding
ML1 = assay: Cerep selectivity panel; format: binding
OP2 = assay: Cerep selectivity panel; format: binding
CI Channel = assay: Cerep selectivity panel; format: binding
[3] = tested on: human CD4 T cells under Th17 conditions; assay: cells; conditions: read-out: Th17 Proliferation (IC50, nM)
ɣ1 (h) = molecular target: T3, ɣ1 (h) (Homo sapiens, UniProt P25929); assay: Cerep selectivity panel; format: binding; conditions: for inhibition at 1 µM: read-out: % Inhibition at 1µM
T3 construct: purchased Cerep
T3 sequence (P25929 1-384): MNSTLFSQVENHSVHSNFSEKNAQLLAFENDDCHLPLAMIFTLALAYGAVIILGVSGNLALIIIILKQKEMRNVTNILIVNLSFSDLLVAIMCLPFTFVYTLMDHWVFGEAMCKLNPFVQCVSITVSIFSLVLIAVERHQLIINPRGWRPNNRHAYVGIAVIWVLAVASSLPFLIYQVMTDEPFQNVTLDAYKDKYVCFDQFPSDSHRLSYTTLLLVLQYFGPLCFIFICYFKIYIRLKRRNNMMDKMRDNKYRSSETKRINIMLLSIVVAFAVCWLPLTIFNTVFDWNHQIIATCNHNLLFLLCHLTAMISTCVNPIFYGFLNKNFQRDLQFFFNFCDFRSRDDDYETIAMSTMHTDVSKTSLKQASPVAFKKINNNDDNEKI
Method: as §3, §4

Row | Compound | pKd (RORα LBD) | pKd (RORβ LBD) | IC50 [1] [nM] | IC50 [2] [nM] | % Inhibition at 1µM (Ca2+ Channel) [%] | % Inhibition at 10µM (Ca2+ Channel) [%] | % Inhibition at 1µM (GABA) [%] | % Inhibition at 1µM (ML1) [%] | % Inhibition at 10µM (ML1) [%] | % Inhibition at 10µM (OP2) [%] | % Inhibition at 1µM (CI Channel) [%] | % Inhibition at 10µM (CI Channel) [%] | IC50 [3] [nM] | Kd (RORα LBD) [nM] | Kd (RORβ LBD) [nM] | also measured
1 | COc1nc2ccc([C@](O)(c3ccc(Cl)cc3)c3cncn3C)cc2c(Cl)c1Cc1ccc(-n2cccn2)cc1 [B] | < 4.71 | < 4.52 | 84.5 | > 240 | 3 | 21 | 9 | 13 | 38 | 10 | 24 | 66 | > 240 |  |  | 
2 | COc1nc2ccc([C@@](O)(c3ccc(C)nc3C)c3cnnn3C)cc2c(Cl)c1Cc1ccc(C(F)(F)F)cc1 [compound A] |  |  |  |  | 2 | 32 | 8 |  | 39 | 37 | 26 | 87 | > 240 | 166 | 4940 | pIC50 ([1]; human CD4 T cells, 3 days, read-out: Th17 Differentiation (IL-17A production) (IC50)): 8.43; pIC50 ([2]; human CD4 T cells, 3 days, read-out: Th1 Differentiation (IFNγ production) (IC50)): < 6.62; inhibition at 1 µM (ɣ1 (h); ɣ1 (h), 1 µM): 5%; inhibition at 10 µM (ɣ1 (h); ɣ1 (h), 10 µM): 5%; % Inhibition at 1µM (OP2; 1 µM): 9%
3 | CN(C)c1nc2ccc(C(O)(c3ccncc3)c3cncn3C)cc2c(Cl)c1-c1ccccc1 (centres unmarked) [compound D] | 6.72 | 5.91 | 22.2 | > 240 |  |  |  |  |  |  |  |  |  |  |  | inhibition at 1 µM (ɣ1 (h)): 16%
4 | COc1nc2ccc([C@@](O)(c3ccccc3)C3CCN(C(C)=O)CC3)cc2c(Cl)c1Cc1ccc(-n2cccn2)cc1 [C] |  |  | 18.3 | > 240 |  |  |  | 4 | 27 | 12 | 16 | 45 | > 240 | > 70000 | > 70000 | % Inhibition at 10µM (GABA; 10 µM): 12%
